Experimental data published in patent US12517136B2, “Il-17F-specific capture agents, compositions, and methods of using and making” (California Institute of Technology, priority 2015, dated 2026).
Where two headings read alike, the source gives them in different places. Bridge positions count the residues as written; N and C are the ends. Square brackets hold non-standard residues; d marks the D form. Triazole bridges read from a SMILES are 1,4-linked. Peptide text beside a SMILES is read from it. * marks the point of attachment. ξ: configuration not given here. X2 = O=C(CCCC[C@@H]1SC[C@@H]2NC(=O)N[C@@H]21)NCCCOCCOCCOCCCN*; X1 = O=C(CCCCC1SC[C@H]2NC(=O)N[C@@H]12)NCCCOCCOCCOCCCN*; Biotin = O=C1N[C@H]2[C@H](CS[C@H]2CCCCC(=O)*)N1; Lys(N3) = [N-]=[N+]=NCCCC[C@H](N)C(=O)O; Thr(3ξ) = CC(O)[C@H](N)C(=O)O; AEEEA = NCCOCCOCCOCC(=O)O; Pra = C#CC[C@H](N)C(=O)O

Experiments:
[1] = test system: full-length His-tagged IL-17F and IL-17A proteins; assay: Point ELISA (IL-17F vs. IL-17A selectivity assay); type: binding, human; conditions: figure legends FIG. 2B, 4B, 4C
Description: Point ELISA (IL-17F vs. IL-17A selectivity assay). A black 96-well NeutrAvidin Coated High Binding Capacity plate (15510, Pierce) was coated with 2 μM macrocyclic peptide ligand in TBS (pH 7.6) for 2 h at room temperature. The plate was aspirated and then washed with TBS (5×) and Wash Buffer (0.05% (v/v) Tween-20 in PBS, 1×). Full-length His-tagged IL-17F (ab167911, Abcam) and IL-17A (ab166882, Abcam) proteins were prepared at 200 and 50 nM in Wash Buffer and incubated in the designated microwells for 90 min at room temperature. Microwells were aspirated and subsequently washed with Wash Buffer (10×). To detect the bound IL-17F and IL-17A proteins, Alkaline Phosphatase (AP)-conjugated Anti-6×His Tag® antibody [HIS-1] (ab49746, Abcam) was prepared at 1:10,000 dilution and added to the microwells for 1 h at room temperature. The plate was aspirated and washed with Wash Buffer (5×). AttoPhos® AP Fluorescent Substrate System (S1000, Promega) was employed to develop the microwells. Using an excitation wavelength of 430 nm, fluorescent emission at 535 nm was recorded by Beckman Coulter DTX880 photometer.
(§1) For these assays, the full-length His-tagged IL-17F and IL-17A proteins were captured using the macrocyclic peptide ligands immobilized on a NeutrAvidin-coated plate.
Point ELISA (IL-17F vs. IL-17A selectivity assay). A black 96-well NeutrAvidin Coated High Binding Capacity plate (15510, Pierce) was coated with 2 μM macrocyclic peptide ligand in TBS (pH 7.6) for 2 h at room temperature. Biotinylated monoclonal anti-IL17F (TA319597, Origene) was coated at 4 μg/mL in TBS as a control. The plate was aspirated and then washed with TBS (5×) and Wash Buffer (0.05% (v/v) Tween-20 in PBS, 1×). Full-length His-tagged IL-17F (ab167911, Abcam) and IL-17A (ab166882, Abcam) proteins were prepared at 100 nM in Wash Buffer and incubated in the designated microwells for 90 min at room temperature. Microwells were aspirated and subsequently washed with Wash Buffer (10×). To detect the bound IL-17F and IL-17A proteins, Alkaline Phosphatase (AP)-conjugated Anti-6×His Tag® antibody [HIS-1] (ab49746, Abcam) was prepared at 1:10,000 dilution and added to the microwells for 1 h at room temperature. The plate was aspirated and washed with Wash Buffer (5×). AttoPhos® AP Fluorescent Substrate System (S1000, Promega) was employed to develop the microwells. Using an excitation wavelength of 430 nm, fluorescent emission at 535 nm was recorded by Beckman Coulter DTX880 photometer.
as §1

[2] = test system: His-tagged IL-17F epitopes; assay: Assay to determine orientation of macrocycle binding to IL-17F Epitope1 (point ELISA); conditions: for binding to epitope scrambled N-terminal to the click handle: epitope 2 μM, no-epitope background subtracted; for binding to the His-tagged IL-17F epitopes (overall, preferred sequence): three His-tagged epitopes, 2 μM
Description: Assay to determine orientation of macrocycle binding to IL-17F Epitope1. A black 96-well NeutrAvidin Coated High Binding Capacity plate (15510, Pierce) was coated with 2 μM macrocyclic peptide ligand in TBS (pH 7.6) for 2 h at room temperature. Biotinylated monoclonal anti-IL17F (TA319597, Origene) was coated at 4 μg/mL in TBS as a control. The plate was aspirated and then washed with TBS (5×) and Wash Buffer (0.05% (v/v) Tween-20 in PBS, 1×). Chemically synthesized His-tagged IL-17F epitopes were prepared at 2 μM in Wash Buffer and incubated in the designated microwells for 90 min at room temperature. Wash Buffer without epitope was added as a control. Microwells were aspirated and subsequently washed with Wash Buffer (10×). To detect the bound IL-17F epitopes, Alkaline Phosphatase (AP)-conjugated Anti-6×His Tag® antibody [HIS-1] (ab49746, Abcam) was prepared at 1:10,000 dilution and added to the microwells for 1 h at room temperature. The plate was aspirated and washed with Wash Buffer (5×). AttoPhos® AP Fluorescent Substrate System (S1000, Promega) was employed to develop the microwells. Using an excitation wavelength of 430 nm, fluorescent emission at 535 nm was recorded by Beckman Coulter DTX880 photometer. Data are shown after subtraction of the no-epitope background.
For this experiment, the IL-17F Epitope1 was re-synthesized with a His6 assay handle and C48S substitution instead of a click handle. Two additional His-tagged IL-17F epitopes were synthesized to contain strategic scrambling of the sequences either N-terminal or C-terminal to C48S. Point ELISAs for the three His-tagged IL-17F epitopes were conducted against the immobilized macrocyclic peptide ligands.

IL-17F [3] = biological target: T1, IL-17F (Homo sapiens, UniProt Q96PD4); assay: KD of PCC macrocycles and biligands against IL-17F (FIG. 12C); type: binding
T1 sequence (Q96PD4 31-163): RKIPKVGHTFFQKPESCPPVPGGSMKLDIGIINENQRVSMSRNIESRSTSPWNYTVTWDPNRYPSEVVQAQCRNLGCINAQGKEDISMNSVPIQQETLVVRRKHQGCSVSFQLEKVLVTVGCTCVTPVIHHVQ

IL-17F [4] = biological target: T1, IL-17F; assay: Sandwich ELISA: immobilized macrocyclic peptide ligand captures full-length His-tagged IL-17F; type: binding; parameters: Full-length His-tagged IL-17F protein (ab167911, Abcam); purchased Abcam ab167911
Description: Sandwich ELISA. A black 96-well NeutrAvidin Coated High Binding Capacity plate (15510, Pierce) was coated with 2 μM macrocyclic peptide ligand in TBS (25 mM Tris-HCl, 150 mM NaCl, pH 7.6) for 2 h at room temperature. Biotinylated monoclonal anti-IL17F (TA319597, Origene) was coated at 4 μg/mL in TBS as a control. The plate was aspirated and then washed with TBS (5×) and Wash Buffer (0.05% (v/v) Tween-20 in PBS, 1×). Full-length His-tagged IL-17F protein (ab167911, Abcam) was serially diluted in Wash Buffer (from 800 to 0 nM) and incubated in the designated microwells for 90 min at room temperature. Microwells were aspirated and subsequently washed with Wash Buffer (10×). […] (ab49746, Abcam) was prepared at 1:10,000 dilution and added to the microwells for 1 h at room temperature. The plate was aspirated and washed with Wash Buffer (5×). AttoPhos® AP Fluorescent Substrate System (S1000, Promega) was employed to develop the microwells. Using an excitation wavelength of 430 nm, fluorescent emission at 535 nm was recorded by Beckman Coulter DTX880 photometer. Titration curves were fit using a four-parameter regression curve fitting program (Origin 8.5) to determine EC50 values.
For these assays, a dilution series of full-length His-tagged IL-17F protein was captured using the macrocyclic peptide ligands immobilized on a NeutrAvidin-coated plate.
Sandwich ELISA. […]

[5] = biological target: Plasmodium falciparum Histidine Rich Protein-2 (Pf.HRP-2) (Plasmodium falciparum, UniProt P05227); type: binding

NCCCC[C@@H]1NC(=O)[C@H](CCCCN)NC(=O)[C@@H](NC(=O)COCCOCCOCCNC(=O)CCCC[C@@H]2SC[C@@H]3NC(=O)N[C@@H]32)Cc2cn(nn2)CCCC[C@@H](C(N)=O)NC(=O)[C@@H]2CCCN2C(=O)[C@H](Cc2c[nH]c3ccccc23)NC(=O)CNC1=O [Cy(KKGWP), Biotin-PEG3-Cy(KKGWP) (SEQ ID NO:23)] ({Biotin-AEEEA}-[Pra]KKGWP[Lys(N3)]-NH2; triazole 1-7)
preferential binding, IL-17F vs IL-17A (in words) [1]: preferential binding to IL-17F

NCCCC[C@@H]1NC(=O)[C@H](CCC(N)=O)NC(=O)[C@@H](N)Cc2cn(nn2)CCCC[C@@H](C(=O)NCCCOCCOCCOCCCNC(=O)CCCC[C@@H]2SC[C@@H]3NC(=O)N[C@@H]32)NC(=O)[C@@H]2CCCN2C(=O)CNC(=O)[C@H](Cc2c[nH]cn2)NC1=O [Cy(QKHGP), Cy(QKHGP) (SEQ ID NO:15)-PEG3-biotin] (H-[Pra]QKHGP[Lys(N3)]-X2; triazole 1-7)
preferential binding, IL-17F vs IL-17A (in words) [1]: preferential binding to IL-17F
preferential binding, IL-17F vs IL-17A (in words) ([1]; listed as QKHGP): preferential binding to IL-17F or IL-17A

C[C@@H]1NC(=O)[C@H](CCCNC(=N)N)NC(=O)[C@H](CCCNC(=N)N)NC(=O)[C@@H](N)Cc2cn(nn2)CCCC[C@@H](C(=O)NCCCOCCOCCOCCCNC(=O)CCCCC2SC[C@H]3NC(=O)N[C@@H]23)NC(=O)[C@H](CO)NC(=O)[C@H](CCC(N)=O)NC1=O (stereo partly shown) [Cy(RRAQS), Cy(RRAQS) (SEQ ID NO:10)-PEG3-biotin] (H-[Pra]RRAQS[Lys(N3)]-X1; triazole 1-7)
preferential binding, IL-17F vs IL-17A (in words) [1]: preferential binding to IL-17F
binding to epitope scrambled N-terminal to the click handle [2]: Binding was destroyed
binding to the His-tagged IL-17F epitopes (overall, preferred sequence) [2]: preferential binding to the sequence FFQKPES

CC(O)[C@@H]1NC(=O)[C@H](C)NC(=O)[C@H](CCCNC(=N)N)NC(=O)[C@H](CCCNC(=N)N)NC(=O)[C@@H](N)Cc2cn(nn2)CCCC[C@@H](C(=O)NCCCOCCOCCOCCCNC(=O)CCCCC2SC[C@H]3NC(=O)N[C@@H]23)NC(=O)[C@H](CO)NC1=O (stereo partly shown) [Cy(RRATS), Cy(RRATS) (SEQ ID NO:9)-PEG3-biotin] (H-[Pra]RRA[Thr(3ξ)]S[Lys(N3)]-X1; triazole 1-7)
preferential binding, IL-17F vs IL-17A (in words) [1]: preferential binding to IL-17F
preferential binding, IL-17F vs IL-17A (in words) ([1]; listed as RRATS): preferential binding to IL-17F or IL-17A
binding to epitope scrambled N-terminal to the click handle [2]: Binding was destroyed
binding to the His-tagged IL-17F epitopes (overall, preferred sequence) [2]: preferential binding to the sequence FFQKPES

CC1N[C@@H](CCCCN)C(=O)N[C@H](C(N)=O)CCCCn2cc(nn2)C[C@H](NC(=O)COCCOCCOCCNC(=O)CCCC[C@@H]2SC[C@@H]3NC(=O)N[C@@H]32)C(=O)N[C@@H](CCCNC(=N)N)C(=O)N[C@@H](CO)C(=O)N[C@@H](Cc2ccc(O)cc2)C(=O)N[C@H]1CC(N)=O (stereo partly shown) [Cy(RSYNK), Biotin-PEG3-Cy(RSYNK) (SEQ ID NO:28)]
preferential binding, IL-17F vs IL-17A (in words) [1]: preferential binding to IL-17F
preferential binding, IL-17F vs IL-17A (in words) ([1]; listed as RSYNK): preferential binding to IL-17F or IL-17A
Kd (IL-17F [3]; read-out: KD against IL-17F): 15 nM
EC50 (IL-17F [4]; 2 μM PEG3-biotin ligand on NeutrAvidin plate, His-tagged IL-17F 800 to 0 nM): 15 ± 5 nM
binding affinity compared in words (ligand vs biotinylated monoclonal anti-IL17F) (IL-17F [4]; antibody coated at 4 μg/mL): exceeds the binding affinity of the similarly assayed biotinylated monoclonal anti-IL17F

C[C@@H]1NC(=O)[C@H](CCCNC(=N)N)NC(=O)[C@H](CCCNC(=N)N)NC(=O)[C@@H](NC(=O)COCCOCCOCCNC(=O)[C@@H]2CCCCn3cc(nn3)C[C@H](NC(=O)COCCOCCOCCNC(=O)CCCC[C@@H]3SC[C@@H]4NC(=O)N[C@@H]43)C(=O)N[C@@H](CCCNC(=N)N)C(=O)N[C@@H](CO)C(=O)N[C@@H](Cc3ccc(O)cc3)C(=O)N[C@@H](CC(N)=O)C(=O)N[C@@H](CCCCN)C(=O)N2)Cc2cn(nn2)CCCC[C@@H](C(N)=O)NC(=O)[C@H](CO)NC(=O)[C@H]([C@@H](C)O)NC1=O [Cy(RSYNK)-PEG3-Cy(RRATS), Biotin-PEG3-Cy(RSYNK) (SEQ ID NO:28)-PEG3-Cy(RRATS) (SEQ ID NO: 9)] ({Biotin-AEEEA}-[Pra]RSYNK[Lys(N3)][AEEEA][Pra]RRATS[Lys(N3)]-NH2; triazole 1-7, 9-15)
Kd (IL-17F [3]): 0.25 nM
improvement in affinity relative to the individual PCC macrocyclic ligands (IL-17F [3]): > 100 fold

C[C@@H](O)[C@@H]1NC(=O)[C@@H](N)Cc2cn(nn2)CCCC[C@@H](C(=O)NCCCOCCOCCOCCCNC(=O)CCCC[C@@H]2SC[C@@H]3NC(=O)N[C@@H]32)NC(=O)[C@@H]2CCCN2C(=O)CNC(=O)[C@H](Cc2c[nH]cn2)NC(=O)[C@H](CCCCN)NC1=O [Cy(TKHGP), Cy(TKHGP) (SEQ ID NO:16)-PEG3-biotin] (H-[Pra]TKHGP[Lys(N3)]-X2; triazole 1-7)
preferential binding, IL-17F vs IL-17A (in words) [1]: preferential binding to IL-17F

N=C(N)NCCC[C@@H]1NC(=O)[C@H](Cc2ccc(O)cc2)NC(=O)[C@H](Cc2ccc(O)cc2)NC(=O)[C@H](CCCCN)NC(=O)[C@H](Cc2ccc(O)cc2)NC(=O)[C@@H](N)Cc2cn(nn2)CCCC[C@@H](C(N)=O)NC1=O [Cy(YKYYR), Cy(YKYYR) (SEQ ID NO:29)] (H-[Pra]YKYYR[Lys(N3)]-NH2; triazole 1-7)
EC50 [5]: 220 nM
